According to patent publication US6548242B2, “Process for the sterilization of biological compositions and the product thereby” (priority 1990, dated 2003):
Where “and” joins values, the source holds several entries; their conditions need not be identical. Identical values can stand only once.

Columns and labels:
platelets [1] = assay: Platelet aggregation in response to collagen after treatment of platelet concentrate; assay type: cell-based
[2] = test system: cell-free vesicular stomatitis virus (VSV); assay type: cell-based
cell-associated VSV = assay type: cell-based, vesicular stomatitis virus
bacteriophage M13 = assay type: cell-based
[3] = test system: encephalomyocarditis virus (EMC); assay type: cell-based
lymphocytes = assay: Lymphocyte inactivation, 3H thymidine uptake after mitogen stimulation; assay type: cell-based; settings: 15 Gy γ-irradiation
platelets [4] = assay: Platelet aggregation response to arachidonic acid and ADP after γ-irradiation of PCs; assay type: cell-based; settings: 2 mM rutin
platelets [5] = assay: Survival of infused radiolabeled UVB-irradiated platelets; assay type: in vivo, dogs; settings: dog PCs, 36 mJ/cm^2 UVB in presence of 2 mM rutin, 51chromium label
RBCCs = assay: Extracellular (plasma) potassium of stored RBCCs
[6] = test system: red blood cell concentrate; assay: Red cell hemolysis after X-irradiation of red blood cell concentrate; settings: brominated hematoporphyrin derivative, 1 mm rutin
[7] = 25 μg/ml AMT and 90 minutes of UVA in presence of flavonoid, overnight storage
[8] = 50 μg/ml AMT, 90 minute UVA, air, +0.5 mM Rutin, experiments 1-5
[9] = flavonoid present, no AMT/UVA treatment, overnight storage

## C[C@@H]1O[C@@H](OC[C@H]2O[C@@H](Oc3c(-c4ccc(O)c(O)c4)oc4cc(O)cc(O)c4c3=O)[C@H](O)[C@@H](O)[C@@H]2O)[C@H](O)[C@H](O)[C@H]1O [rutin]
Platelets [1]; [7]
  % Untreated Control - Extent of Aggregation Response to Collagen, treated: 100/100 % Untreated Control
  % Untreated Control - Rate of Aggregation Response to Collagen, treated: 100/100 % Untreated Control
Platelets [1]; [8]
  Platelet aggregation, first value of pair (extent as in Table III): 95 and 96/96 and 100 and 100/100 and 98
  Platelet aggregation, second value of pair (rate as in Table III): 90 and 96/96 and 84 and 100/100 and 95
Platelets [1]; Platelet Conc., 50 μg/ml AMT + 57 J/cm^2 UVA, 0.35 mM rutin
  agg response: 85%
Platelets [1]; [9]
  % Untreated Control - Extent of Aggregation Response to Collagen, untreated: 100/100 % Untreated Control
  % Untreated Control - Rate of Aggregation Response to Collagen, untreated: 100/100 % Untreated Control
Platelets [1]; platelet conc., 25, 50 or 100 μg/ml AMT, 90 min UVA, 0.7 mM rutin
  aggregation function: more than 80 % of the control
[2]
  LOG10 VIRUS KILL VSV: ≧6 LOG10
  Virus Kill (log10) VSV: ≧5.4 log10
  kill of VSV: exceeded 5 log10
cell-associated VSV
  inactivation of cell-associated VSV: ~6 log10
Bacteriophage M13
  LOG10 VIRUS KILL M13: 6 LOG10 and 3 LOG10 and 5 LOG10
[3]
  Virus Kill (log10) EMC: ≧7.7 log10
lymphocytes; PCs, independent of presence or concentration of rutin
  3H thymidine uptake retained by irradiated lymphocytes: 1.5%
lymphocytes; RBCCs, independent of presence or concentration of rutin (0.5, 1 or 2 mM)
  3H thymidine uptake retained by irradiated lymphocytes: 1.5%
Platelets [4]; 50 Gy γ-irradiation, 3 day storage
  rate of aggregation: 80 % of the control
Platelets [4]; γ-irradiation 15-50 Gy, after 1 day
  Platelet aggregation: 95%
Platelets [5]
  Survival of UV-exposed donor platelets: 5 days
RBCCs; RBCC, AlPcS4 treatment then γ-irradiation 25 Gy, rutin present during γ-irradiation and storage, 2 days
  plasma K+: 25 mM
RBCCs; RBCC, AlPcS4 treatment then γ-irradiation 25 Gy, rutin present during γ-irradiation and storage, 7 days
  plasma K+: 40 mM
RBCCs; RBCCs, 50 Gy γ-irradiation, 2 mM rutin present during treatment
  plasma K+: 40 mM
RBCCs; RBCCs, γ-irradiation, 2 mM rutin
  Extracellular potassium: decreased to control levels
[6]
  red cell hemolysis: less than 2%
